These results are taken from patent US12570655B2, “Cysteine covalent modifiers of AKT1 and uses thereof” (Terremoto Biosciences, Inc., priority 2023, dated 2026).

Assay type in all cases: cell-based
Experiment [1] concerns the target T1, AKT1 E17K (Homo sapiens, UniProt P31749, E17K).
T1 construct: expressed in transfected cells; host or cells: HEK293
In words: Live cell AKT1 E17K target engagement by NanoBRET competitive probe displacement. The following applies: HEK293 cells transfected with kinase-NanoLuciferase fusion, 2 h at 37° C. A digest of the protocol:
(§1)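 Steps: overnight transfection of HEK293 with kinase-NanoLuc plasmids; addition of compound dilutions and tracer (~EC50); 2 h incubation at 37 °C; substrate plus extracellular luciferase inhibitor; luminescence at 460 and 600 nm. IC50 values came from fitting the BRET ratio to a Hill equation.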
(In general: In BRET a luciferase serves as donor, and the signal depends on an acceptor being close.)

Experiment [2] has as its target T2, AKT2 (Homo sapiens, UniProt P31751).
T2 construct: expressed in transfected cells; host or cells: HEK293
Put plainly: Live cell AKT2 target engagement by NanoBRET competitive probe displacement. The following applies: HEK293 cells transfected with kinase-NanoLuciferase fusion, 2 h at 37° C. A digest of the protocol: as §1

For experiment [3], the target named is T3, AKT1 WT (Homo sapiens, UniProt P31749).
T3 construct: expressed in transfected cells; host or cells: HEK293
In words: Live cell AKT1 WT target engagement by NanoBRET competitive probe displacement. The following applies: HEK293 cells transfected with kinase-NanoLuciferase fusion, 2 h at 37° C. A digest of the protocol:
as §1

Experiment [4] relates to LAPC4 prostate cancer cells. Put plainly: Antiproliferative effects in LAPC4 cells (CellTiter Glo). The following applies: LAPC4 cells (AKT1 E17K allele), read-out: LAPC4 proliferation IC50. A digest of the protocol:
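Growth inhibition is gauged by intracellular ATP content, measured with CellTiter Glo 72 h after compound addition to 1,000 seeded cells per well. IC50 derives from a Hill equation fit.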
On the technique in general: Cellular ATP, detected with luciferase, serves as a proxy for viable cell number.

Read-outs that look alike come from different tables or passages of the source.

T3 sequence (P31749 whole entry): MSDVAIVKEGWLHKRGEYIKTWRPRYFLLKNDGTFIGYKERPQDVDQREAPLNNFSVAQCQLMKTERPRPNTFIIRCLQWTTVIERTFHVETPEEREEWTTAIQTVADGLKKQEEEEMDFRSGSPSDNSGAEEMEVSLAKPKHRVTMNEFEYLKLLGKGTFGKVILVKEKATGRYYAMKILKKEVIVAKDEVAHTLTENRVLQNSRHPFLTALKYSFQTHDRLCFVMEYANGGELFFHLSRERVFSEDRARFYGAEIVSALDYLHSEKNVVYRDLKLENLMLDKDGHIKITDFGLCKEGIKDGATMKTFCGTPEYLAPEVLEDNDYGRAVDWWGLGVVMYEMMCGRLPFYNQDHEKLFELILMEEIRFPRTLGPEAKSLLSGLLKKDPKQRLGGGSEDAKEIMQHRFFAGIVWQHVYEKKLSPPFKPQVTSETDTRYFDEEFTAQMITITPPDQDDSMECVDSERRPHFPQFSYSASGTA
T2 sequence (P31751 whole entry): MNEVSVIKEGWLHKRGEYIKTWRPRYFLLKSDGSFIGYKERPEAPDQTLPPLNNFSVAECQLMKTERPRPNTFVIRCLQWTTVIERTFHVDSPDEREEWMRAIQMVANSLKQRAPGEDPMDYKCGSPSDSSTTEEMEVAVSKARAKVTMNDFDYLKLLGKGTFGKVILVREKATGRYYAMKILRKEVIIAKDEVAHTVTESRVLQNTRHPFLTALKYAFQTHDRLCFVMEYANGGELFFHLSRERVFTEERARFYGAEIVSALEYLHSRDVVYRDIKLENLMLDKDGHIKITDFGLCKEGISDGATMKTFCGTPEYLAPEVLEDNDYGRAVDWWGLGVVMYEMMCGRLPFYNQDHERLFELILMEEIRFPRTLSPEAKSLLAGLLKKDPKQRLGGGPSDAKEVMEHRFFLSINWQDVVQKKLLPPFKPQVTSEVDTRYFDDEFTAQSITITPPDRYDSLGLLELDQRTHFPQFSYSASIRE
T1 sequence (P31749 whole entry E17K): as the sequence (P31749 whole entry) above, with E17K counted along it

On to `C=CC(=O)N1CCC(N[C@H]2CCc3cc(-n4c(-c5cccnc5N)nc5ccc(-n6cccn6)nc54)ccc32)C(O)C1` (single isomer, unassigned) [Example 142, 1-[(3*,4*)-4-{[(1S)-5-[2-(2-aminopyridin-3-yl)-5-(pyrazol-1-yl)imidazo[4,5-b]pyridin-3-yl]-2,3-dihydro-1H-inden-1-yl]amino}-3-hydroxypiperidin-1-yl]prop-2-en-1-one], for which the IC50 in experiment [1] is more than 1000 nM; in experiment [2], more than 10000 nM; in experiment [3] it was more than 1000 nM; in experiment [4] (72 h), 3460 nM.
For the compound `C=CC(=O)N(C)CCCN[C@H]1CCc2cc(-n3c(-c4cccnc4N)nc4ccc(-n5cccn5)nc43)ccc21` [Example 166, (S)-N-(3-((5-(2-(2-aminopyridin-3-yl)-5-(1H-pyrazol-1-yl)-3H-imidazo[4,5-b]pyridin-3-yl)-2,3-dihydro-1H-inden-1-yl)amino)propyl)-N-methylacrylamide], the IC50 in experiment [1] came out at 74 nM; in experiment [2] it was 257 nM; in experiment [3], 21.9 nM; in experiment [4] (Homo sapiens, LAPC4, 72 h), 116 nM.
For `C=CC(=O)N1CCC(N[C@H]2CCc3cc(-n4c(-c5cccnc5N)nc5ccc(-c6ncco6)nc54)ccc32)CC1` [Example 109, (S)-1-(4-((5-(2-(2-aminopyridin-3-yl)-5-(oxazol-2-yl)-3H-imidazo[4,5-b]pyridin-3-yl)-2,3-dihydro-1H-inden-1-yl)amino)piperidin-1-yl)prop-2-en-1-one], the IC50 in experiment [1] worked out at 124 nM; in experiment [2] it was 454 nM; in experiment [3], 24.9 nM; in experiment [4] (Homo sapiens, LAPC4, 72 h), 3160 nM.
`C=CC(=O)NCc1ccccc1C(=O)N[C@H]1CCc2cc(-n3c(-c4cccnc4N)nc4ccc(-n5cccn5)nc43)ccc21` [Example 71, N-[(1S)-5-[2-(2-aminopyridin-3-yl)-5-(pyrazol-1-yl)imidazo[4,5-b]pyridin-3-yl]-2,3-dihydro-1H-inden-1-yl]-2-(prop-2-enamidomethyl)benzamide]: the IC50 amounted to 9.43 nM in experiment [1]; 31.8 nM in experiment [2]; 11.5 nM in experiment [3]; 29.8 nM in experiment [4] (Homo sapiens, LAPC4, 72 h).
Turning to `C=CC(=O)N1CCC(N[C@H]2CCc3cc(-n4c(-c5cccnc5N)nc5ccc(-c6nc(C)co6)nc54)ccc32)CC1` [Example 253, 1-(4-{[(1S)-5-[2-(2-aminopyridin-3-yl)-5-(4-methyl-1,3-oxazol-2-yl)imidazo[4,5-b]pyridin-3-yl]-2,3-dihydro-1H-inden-1-yl]amino}piperidin-1-yl)prop-2-en-1-one], the IC50 came out at 14.5 nM in experiment [1]; 58.8 nM in experiment [2]; 318 nM in experiment [3]; 127 nM in experiment [4] (Homo sapiens, LAPC4, 72 h).
As for `C=CC(=O)N1CCC(N[C@H]2CC(O)c3cc(-n4c(-c5cccnc5N)nc5ccc(-n6cccn6)nc54)ccc32)CC1` (single isomer, unassigned) [Example 218, 1-(4-(((1S,3*)-5-(2-(2-aminopyridin-3-yl)-5-(1H-pyrazol-1-yl)-3H-imidazo[4,5-b]pyridin-3-yl)-3-hydroxy-2,3-dihydro-1H-inden-1-yl)amino)piperidin-1-yl)prop-2-en-1-one], the IC50 in experiment [1] turned out to be 52.3 nM; in experiment [2], 140 nM; in experiment [3] it was 365 nM; in experiment [4] (72 h) it was 226 nM.
As for `C=CC(=O)N1C[C@@H]2C[C@H]1CC2N[C@H]1CCc2cc(-n3c(-c4cccnc4N)nc4ccc(-n5cccn5)nc43)ccc21` (single isomer, unassigned) [Example 136, 1-[(1S,4S,5*)-5-{[(1S)-5-[2-(2-aminopyridin-3-yl)-5-(pyrazol-1-yl)imidazo[4,5-b]pyridin-3-yl]-2,3-dihydro-1H-inden-1-yl]amino}-2-azabicyclo[2.2.1]heptan-2-yl]prop-2-en-1-one], the IC50 is 211 nM in experiment [1], 1950 nM in experiment [2], 95.8 nM in experiment [3] and 520 nM in experiment [4] (72 h).
In the same order, the values of `C=CC(=O)N1CC2CC[C@H]1CC2N[C@H]1CCc2cc(-n3c(-c4cccnc4N)nc4ccc(-n5cccn5)nc43)ccc21` (single isomer, unassigned) [Example 133, 1-[(1S,4S,5*)-5-{[(1S)-5-[2-(2-aminopyridin-3-yl)-5-(pyrazol-1-yl)imidazo[4,5-b]pyridin-3-yl]-2,3-dihydro-1H-inden-1-yl]amino}-2-azabicyclo[2.2.2]octan-2-yl]prop-2-en-1-one] are 13.4 nM, 47 nM, 9.71 nM and 16.3 nM.
For `C=CC(=O)N1CCN(N[C@H]2CCc3cc(-n4c(-c5cccnc5N)nc5ccc(C6CC6)nc54)ccc32)CC1` [Example 349], the IC50 in experiment [1] was 32 nM; in experiment [2], 432 nM; in experiment [3], 1640 nM; in experiment [4] (Homo sapiens, LAPC4, 72 h), 1160 nM.
The like results for `C=CC(=O)N1CCC(N[C@H]2CCc3cc(-n4c(-c5cccnc5N)nc5ccc(-c6nnc(C7CC7)s6)nc54)ccc32)CC1` [Example 320, (S)-1-(4-((5-(2-(2-aminopyridin-3-yl)-5-(5-cyclopropyl-1,3,4-thiadiazol-2-yl)-3H-imidazo[4,5-b]pyridin-3-yl)-2,3-dihydro-1H-inden-1-yl)amino)piperidin-1-yl)prop-2-en-1-one] were, in that order, 11.8 nM, 45.5 nM, 290 nM and 78.2 nM.
The like results for `C=CC(=O)N1CC2(CC(N[C@H]3CCc4cc(-n5c(-c6cccnc6N)nc6ccc(-n7cccn7)nc65)ccc43)C2)C1` [Example 31, 1-(6-{[(1S)-5-[2-(2-aminopyridin-3-yl)-5-(pyrazol-1-yl)imidazo[4,5-b]pyridin-3-yl]-2,3-dihydro-1H-inden-1-yl]amino}-2-azaspiro[3.3]heptan-2-yl)prop-2-en-1-one] were, in that order, 12.6 nM, 57.9 nM, 12.9 nM and 30.8 nM.
As to `C=CC(=O)N1CCC(N[C@H]2CCc3cc(-n4c(-c5ccccc5)nc5ccc(-n6ccc(F)n6)nc54)ccc32)CC1` [Example 282, 1-(4-{[(1S)-5-[5-(3-fluoropyrazol-1-yl)-2-phenylimidazo[4,5-b]pyridin-3-yl]-2,3-dihydro-1H-inden-1-yl]amino}piperidin-1-yl)prop-2-en-1-one], the IC50 in experiment [1] stood at 15.2 nM; in experiment [2], 86 nM; in experiment [3], 1590 nM; in experiment [4] (Homo sapiens, LAPC4, 72 h), 464 nM.
Regarding `C=CC(=O)N1CCC(N[C@@H]2c3ccc(-n4c(-c5cccnc5N)nc5ccc(-n6ccc(F)n6)nc54)cc3CC2F)C[C@@H]1C` (single isomer, unassigned) [Example 272, 1-((2S,4*)-4-(((1R,2*)-5-(2-(2-aminopyridin-3-yl)-5-(3-fluoro-1H-pyrazol-1-yl)-3H-imidazo[4,5-b]pyridin-3-yl)-2-fluoro-2,3-dihydro-1H-inden-1-yl)amino)-2-methylpiperidin-1-yl)prop-2-en-1-one], the IC50 in experiment [1] was 23.6 nM; in experiment [2], 92.1 nM; in experiment [3] it was 1240 nM; in experiment [4] (72 h), 351 nM.
For the compound `C=CC(=O)N1CCC(N[C@@H]2c3ccc(-n4c(-c5cccnc5N)nc5ccc(-n6cccn6)nc54)cc3CC2(F)F)CC1` [Example 119, 1-(4-{[(1R)-5-[2-(2-aminopyridin-3-yl)-5-(pyrazol-1-yl)imidazo[4,5-b]pyridin-3-yl]-2,2-difluoro-1,3-dihydroinden-1-yl]amino}piperidin-1-yl)prop-2-en-1-one], the IC50 in experiment [1] was 582 nM; in experiment [2], 3590 nM; in experiment [3] it was 85.6 nM; in experiment [4] (Homo sapiens, LAPC4, 72 h) it was 595 nM.
Regarding `C=CC(=O)N1CCC(N[C@H]2CCc3cc(-n4c(-c5cccnc5N)nc5ccc(-c6nccs6)nc54)ccc32)CC1` [Example 159, 1-(4-{[(1S)-5-[2-(2-aminopyridin-3-yl)-5-(1,3-thiazol-2-yl)imidazo[4,5-b]pyridin-3-yl]-2,3-dihydro-1H-inden-1-yl]amino}piperidin-1-yl)prop-2-en-1-one], the IC50 in experiment [1] was 56.2 nM; in experiment [2], 146 nM; in experiment [3], 20 nM; in experiment [4] (Homo sapiens, LAPC4, 72 h), 71.2 nM.
Take `C=CC(=O)N1CCC(N[C@H]2CCc3cc(-n4c(-c5cccnc5N)nc5ccc(-n6cccn6)nc54)ccc32)C[C@H]1C` (single isomer, unassigned) [Example 63, 1-((2R,4*)-4-(((S)-5-(2-(2-aminopyridin-3-yl)-5-(1H-pyrazol-1-yl)-3H-imidazo[4,5-b]pyridin-3-yl)-2,3-dihydro-1H-inden-1-yl)amino)-2-methylpiperidin-1-yl)prop-2-en-1-one]: the IC50 in experiment [1] amounted to 47.5 nM; in experiment [2], 248 nM; in experiment [3], 24.1 nM; in experiment [4] (72 h) it was 124 nM.
For `C=CC(=O)N1CCC(N[C@@H]2c3ccc(-n4c(-c5cccnc5N)nc5ccc(-n6ccc(F)n6)nc54)cc3CC2F)C[C@H]1C` (single isomer, unassigned) [Example 275, 1-((2R,4*)-4-(((1R,2*)-5-(2-(2-aminopyridin-3-yl)-5-(3-fluoro-1H-pyrazol-1-yl)-3H-imidazo[4,5-b]pyridin-3-yl)-2-fluoro-2,3-dihydro-1H-inden-1-yl)amino)-2-methylpiperidin-1-yl)prop-2-en-1-one], the IC50 in experiment [1] was determined as 84 nM; in experiment [2] it was 81.9 nM; in experiment [3] it was 2620 nM; in experiment [4] (72 h), 326 nM.
